Test results reported in US20140357512A1, “HISTONE DEACETYLASE (HDAC) BIOMARKERS IN MULTIPLE MYELOMA” (priority 2013, published 2014).

System: human myeloma cell line MM.1S
Assay: SILAC acetylated-lysine peptide profiling, HDAC inhibitor vs DMSO (light/heavy ratio)
Assay type: cell-based
From the text: An embodiment of the invention comprises utilizing the SILAC method in order to quantitate changes in protein expression between two or more populations of cells. The SILAC method is a technique based on mass spectrometry that detects differences in protein abundance among samples using non-radioactive isotopic labeling. The SILAC method is known in the art, and described in detail in Ong et al., “Stable Isotope Labeling by Amino Acids in Cell Culture, SILAC, as a Simple and Accurate Approach to Expression Proteomics”, Molecular & Cellular Proteomics, vol. 1, pp. 376-386 (2002), which is incorporated herein by reference in its entirety.
Briefly, the SILAC method involves growing two populations of cells in cell culture. The first population of cells is grown in growth media containing normal amino acids (“normal media”). The second population of cells is grown in media lacking a standard essential amino acid (such as lysine), but is then supplemented with a non-radioactive, isotopically labeled form of that essential amino acid (such as lysine labeled with ^13C atoms, rather than normal ^12C atoms), which is called “heavy media”. When the two populations of cells are each growing in the medium, they incorporate the amino acids into all of their proteins. The growth of cells maintained in the heavy media is no different from that in normal media. All peptides containing the heavy amino acids are heavier than their normal counterparts. The cells from each of the two populations of cells are lysed. The lysates from each of the two cell populations are then combined. The combined cell lysates are then analyzed by mass spectrometry. Pairs of chemically identical peptides of different stable isotope composition can be differentiated in a mass spectrometer due to their difference in mass. The ratio of peak intensities in the mass spectrum for such peptide pairs reflects the abundance ratio for the two proteins.
This example describes SILAC studies that were performed to compare the effects of three different HDAC inhibitors (Compound A, Compound B, and tubastatin A) to a control on a human multiple myeloma cell line. The HDAC inhibitors were also compared amongst themselves to determine differences in their effects.
A human myeloma cell line MM.1S was grown using either ^12C (light) or ^13C (heavy) lysine containing culture medium. The “heavy” cells were treated with DMSO as the control, and the “light” cells were treated with a single HDAC inhibitor at 37° C. for 6 hours. The heavy and light cells were lysed, and the lysates were mixed in 1:1 ratio and digested with the protease trypsin. The acetylated lysine containing peptides (due to the action of the HDAC inhibitor) in the digested peptide pool were captured by a non-specific anti-acetylated lysine antibody cocktail (the antibodies identify both light and heavy acetylated peptides), and subjected to mass spectrometry analysis in order to identify thousands of individual peptides.
Thousands of peptides were identified in pairs (^12C and ^13C) due to their known mass differences. The amino acid sequence and quantitative ratio (Light/Heavy) of a given peptide in two differentially treated cell lysates were then determined and annotated with their possible protein (gene) sources.
As stated above, three HDAC inhibitors (Compound A, Compound B, and Tubastatin A) were used. Thus, the SILAC method was performed three times, with a different HDAC inhibitor compared to a control each time. Accordingly, there are three pairs of quantitative data in the table below, i.e., Compound A:DMSO, Compound B:DMSO, and Tubastatin A:DMSO. A cut-off of 1.30 fold of change (increase or decrease) was then used to determine “changed” or “+” in the table, and any peptides with a fold of change less than 1.3 fold were determined to be “unchanged” or “0” in the table. Those peptides that were not identified were marked as “NA” in the table. […]

SMILES: O=C(CCCCCCNC(=O)c1cnc(N(c2ccccc2)c2ccccc2)nc1)NO [Compound A, 2-(diphenylamino)-N-(7-(hydroxyamino)-7-oxoheptyl)pyrimidine-5-carboxamide]
- light to heavy ratio (L/H ratio) of acetylated peptide EIAENALGK(ac)HK (SEQ ID NO: 617) (Isoform 1 of Heterogeneous nuclear ribonucleoprotein H3 [76], gene HNRNPH3, inhibitor:DMSO): 0.47 log 2
- light to heavy ratio (L/H ratio) of acetylated peptide DVSYQGGK(ac)SIK (SEQ ID NO: 571) (Isoform 1 of Histone-lysine N-methyltransferase MLL3 [758], gene MLL3, inhibitor:DMSO): 0.42 log 2
- light to heavy ratio (L/H ratio) of acetylated peptide TLVLSDK(ac)HSPQK (SEQ ID NO: 523) (Isoform 1 of Histone-lysine N-methyltransferase MLL3 [2809], gene MLL3, inhibitor:DMSO): −0.46 log 2
- light to heavy ratio (L/H ratio) of acetylated peptide VK(ac)NELFK (SEQ ID NO: 565) (Isoform 1 of Hydroxyacyl-coenzyme A dehydrogenase mitochondrial [127], gene HADH, inhibitor:DMSO): 0.41 log 2
- light to heavy ratio (L/H ratio) of acetylated peptide LVAENK(ac)FGK (SEQ ID NO: 296) (Isoform 1 of Hydroxyacyl-coenzyme A dehydrogenase mitochondrial [301], HADH, drug:DMSO): 0.74 log 2
- light to heavy ratio (L/H ratio) of acetylated peptide K(ac)[…] (SEQ ID NO: 316) (Isoform 1 of L-lactate dehydrogenase A chain [318], LDHA, drug:DMSO): 1.00 log 2
- light to heavy ratio (L/H ratio) of acetylated peptide INK(ac)ALDK (SEQ ID NO: 344) (Isoform 1 of Myosin-9 [435], MYH9, drug:DMSO): 0.00 log 2
- light to heavy ratio (L/H ratio), log 2 scale, acetylated peptide INKALDK(ac)TK (SEQ ID NO: 802) (Isoform 1 of Myosin-9 [439], gene MYH9, drug:DMSO): 1.00
- light to heavy ratio (L/H ratio) of acetylated peptide FYK(ac)[…] (SEQ ID NO: 596) (Isoform 1 of N-alpha-acetyltransferase 50 NatE catalytic subunit [37], gene NAA50, inhibitor:DMSO): 0.45 log 2
- light to heavy ratio (L/H ratio), log 2 scale, acetylated peptide VYFK(ac)DTHPK (SEQ ID NO: 758) (Isoform 1 of NADH-cytochrome b5 reductase 3 [115], gene CYB5R3, drug:DMSO): 0.90
- light to heavy ratio (L/H ratio), log 2 scale, acetylated peptide […](ac)SK (SEQ ID NO: 767) (Isoform 1 of Peripherin [288], gene PRPH, drug:DMSO): 0.94
- light to heavy ratio (L/H ratio) of acetylated peptide K(ac)EYVFADSK (SEQ ID NO: 616) (Isoform 1 of Phosphatidylinositol-345-trisphosphate 5-phosphatase 1 [371], gene INPP5D, LOC646743, inhibitor:DMSO): 0.47 log 2
- light to heavy ratio (L/H ratio) of acetylated peptide VK(ac)ILFNK (SEQ ID NO: 561) (Isoform 1 of Polypyrimidine tract-binding protein 1 [368], gene PTBP1, inhibitor:DMSO): 0.40 log 2
- light to heavy ratio (L/H ratio) of acetylated peptide TACAINK(ac)VLMGR (SEQ ID NO: 584) (Isoform 1 of Protein FAM98A [297], gene FAM98A, inhibitor:DMSO): 0.43 log 2
- light to heavy ratio (L/H ratio) of acetylated peptide LMK(ac)YLLEQLK (SEQ ID NO: 585) (Isoform 1 of Protein MB21D1 [414], gene MB21D1, inhibitor:DMSO): 0.43 log 2
- light to heavy ratio (L/H ratio) of acetylated peptide VLSK(ac)[…] (SEQ ID NO: 294) (Isoform 1 of Protein SET [154], SET, drug:DMSO): 0.69 log 2
- light to heavy ratio (L/H ratio) of acetylated peptide […](ac)ALK (SEQ ID NO: 349) (Isoform 1 of RNA-binding protein with serine-rich domain 1 [218], RNPS1, drug:DMSO): 0.00 log 2
- light to heavy ratio (L/H ratio), log 2 scale, acetylated peptide […](ac)TDQAQDVK (SEQ ID NO: 765) (Isoform 1 of Signal recognition particle 9 kDa protein [52], gene SRP9, drug:DMSO): 0.93
- light to heavy ratio (L/H ratio), log 2 scale, acetylated peptide AMMEK(ac)LVK(ac)SISQLK (SEQ ID NO: 814) (Isoform 1 of Signal transducer and activator of transcription 2 [158:161], gene STAT2, drug:DMSO): 1.00
- light to heavy ratio (L/H ratio) of acetylated peptide DMCLEK(ac)DTLGLFLR (SEQ ID NO: 530) (Isoform 1 of U5 small nuclear ribonucleoprotein 200 kDa helicase [745], gene SNRNP200, inhibitor:DMSO): −0.41 log 2
- light to heavy ratio (L/H ratio) of acetylated peptide LEMSYSK(ac)FK (SEQ ID NO: 304) (Isoform 1 of UDP-N-acetylglucosamine--dolichyl-phosphate N-acetylglucosaminephosphotransferase [320], DPAGT1, drug:DMSO): 1.00 log 2
- light to heavy ratio (L/H ratio) of acetylated peptide PK(ac)PLLFK (SEQ ID NO: 544) (Isoform 1 of UDP-glucose:glycoprotein glucosyltransferase 1 [176], gene UGGT1, inhibitor:DMSO): 0.39 log 2
- light to heavy ratio (L/H ratio) of acetylated peptide TMSCSDK(ac)ILR (SEQ ID NO: 323) (Isoform 2 of Double-stranded RNA-specific adenosine deaminase [1013], ADAR, drug:DMSO): 0.00 log 2
- light to heavy ratio (L/H ratio) of acetylated peptide […](ac)[…] (SEQ ID NO: 336) (Isoform 2 of Fibronectin type-III domain-containing protein 3A [507], FNDC3A, drug:DMSO): 0.00 log 2
- light to heavy ratio (L/H ratio), log 2 scale, acetylated peptide FYEQFSK(ac)NIK (SEQ ID NO: 799) (Isoform 2 of Heat shock protein HSP 90-alpha [565], gene HSP90AA1, drug:DMSO): 1.00
- light to heavy ratio (L/H ratio) of acetylated peptide SK(ac)GK(ac)NSDEEAPK (SEQ ID NO: 615) (Isoform 2 of Inhibitor of growth protein 4 [145:147], gene ING4, inhibitor:DMSO): 0.47 log 2
- light to heavy ratio (L/H ratio) of acetylated peptide LSFISVGNK(ac)FK (SEQ ID NO: 521) (Isoform 2 of Myosin-VI [646], gene MYO6, inhibitor:DMSO): −0.49 log 2
- light to heavy ratio (L/H ratio) of acetylated peptide AEK(ac)[…] (SEQ ID NO: 503) (Isoform 2 of Neutral alpha-glucosidase AB [242], gene GANAB, inhibitor:DMSO): −0.71 log 2
- light to heavy ratio (L/H ratio) of acetylated peptide GAK(ac)PVVVLQK (SEQ ID NO: 611) (Isoform 2 of Nipped-B-like protein [1000], gene NIPBL, inhibitor:DMSO): 0.47 log 2
- light to heavy ratio (L/H ratio) of acetylated peptide LIAGNK(ac)[…] (SEQ ID NO: 512) (Isoform 2 of Nuclear factor related to kappa-B-binding protein [1262], gene NFRKB, inhibitor:DMSO): −0.58 log 2
- light to heavy ratio (L/H ratio) of acetylated peptide […](ac)K (SEQ ID NO: 626) (Isoform 2 of Septin-7 [207], gene, inhibitor:DMSO): 0.49 log 2
- light to heavy ratio (L/H ratio) of acetylated peptide YQQFK(ac)DFQR (SEQ ID NO: 258) (Isoform 2 of Spliceosome RNA helicase DDX39B [349], SNORD84, DDX39B, drug:DMSO): 0.39 log 2
- light to heavy ratio (L/H ratio) of acetylated peptide GLCEK(ac)PLASAAAK (SEQ ID NO: 536) (Isoform 2 of Transportin-3 [513], gene TNPO3, inhibitor:DMSO): −0.39 log 2
- light to heavy ratio (L/H ratio), log 2 scale, acetylated peptide LEPLK(ac)PLK (SEQ ID NO: 772) (Isoform 3 of Proline-rich protein 12 [1223], gene PRR12, drug:DMSO): 1.00
- light to heavy ratio (L/H ratio), log 2 scale, acetylated peptide DQTK(ac)SIVEK (SEQ ID NO: 810) (Isoform 3 of Reticulon-3 [217], gene RTN3, drug:DMSO): 1.00
- light to heavy ratio (L/H ratio) of acetylated peptide LAAFGQLHK(ac)[…] (SEQ ID NO: 570) (Isoform 5 of Interleukin enhancer-binding factor 3 [332], gene ILF3, inhibitor:DMSO): 0.41 log 2
